What was measured:
[1] = target: T1, TIP60-KAT5 (Homo sapiens, UniProt Q92993); assay: Revised Acetyltransferase Biochemical Assay, KAT5; conditions: 10 nM KAT5, 1 μM AcCoA, 100 nM histone H4, 90 min
T1 construct: encoding amino acid residues 2 to 461 (Uniprot Q92993-2) of human KAT5 isoform; made in house; host or cells: E. coli BL21 DE3

[2] = target: T2, MOF-KAT8 (Homo sapiens, UniProt Q9H7Z6); assay: Revised Acetyltransferase Biochemical Assay, KAT8
T2 sequence (Q9H7Z6 177-447): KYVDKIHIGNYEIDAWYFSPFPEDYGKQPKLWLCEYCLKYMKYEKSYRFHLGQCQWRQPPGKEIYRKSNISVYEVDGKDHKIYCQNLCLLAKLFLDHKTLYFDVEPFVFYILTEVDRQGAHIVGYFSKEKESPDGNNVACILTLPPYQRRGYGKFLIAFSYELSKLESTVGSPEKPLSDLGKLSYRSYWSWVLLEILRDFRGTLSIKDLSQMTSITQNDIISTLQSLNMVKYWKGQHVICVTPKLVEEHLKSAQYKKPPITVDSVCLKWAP

[3] = target: T1, TIP60-KAT5; assay: Acetyltransferase biochemical assay (AlphaScreen), KAT5; conditions: Table 1 (TIP60-KAT5); 0.4 μM Acetyl coenzyme A, histone H4, 10 nM enzyme
[4] = target: T3, MOZ-KAT6A (Homo sapiens, UniProt Q92794, A567V); assay: Revised Acetyltransferase Biochemical Assay, KAT6A; conditions: Table 8 (MOZ-KAT6A), 1 μM Acetyl coenzyme A
T3 construct: encoding amino acid residues 507 to 778 (Uniprot Q92794-1) of human KAT6A; made in house; host or cells: E. coli BL21 DE3

[5] = target: T4, HBO-KAT7 (Homo sapiens, UniProt O95251); assay: Revised Acetyltransferase Biochemical Assay, KAT7; conditions: Table 9 (HBO-KAT7), 1 μM Acetyl coenzyme A
T4 construct: encoding amino acid residues 325 to 611 (Uniprot 095251-1) of human KAT7; made in house; host or cells: E. coli BL21 DE3 RIL

[6] = target: T3, MOZ-KAT6A; assay: Acetyltransferase biochemical assay (AlphaScreen), KAT6A; conditions: Table 2 (MOZ-KAT6A); 10 μM Acetyl coenzyme A, histone H3.1, 5 nM enzyme
[7] = target: T2, MOF-KAT8; assay: Acetyltransferase biochemical assay (AlphaScreen), KAT8; conditions: Table 4 (MOF-KAT8); 0.4 μM Acetyl coenzyme A, histone H4, 20 nM enzyme
[8] = target: T4, HBO-KAT7; assay: Acetyltransferase biochemical assay (AlphaScreen), KAT7; conditions: Table 3 (HBO-KAT7); 0.4 μM Acetyl coenzyme A, histone H3.1, 40 nM enzyme

T4 sequence (O95251 with tags, fused parts or gaps): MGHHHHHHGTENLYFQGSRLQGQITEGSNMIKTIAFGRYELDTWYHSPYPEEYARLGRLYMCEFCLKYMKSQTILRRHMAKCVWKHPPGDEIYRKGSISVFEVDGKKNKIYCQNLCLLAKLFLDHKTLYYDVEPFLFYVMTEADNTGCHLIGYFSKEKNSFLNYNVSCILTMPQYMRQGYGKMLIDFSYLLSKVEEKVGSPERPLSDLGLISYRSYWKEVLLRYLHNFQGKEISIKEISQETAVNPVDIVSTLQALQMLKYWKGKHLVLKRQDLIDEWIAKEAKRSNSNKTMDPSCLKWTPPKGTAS
T1 sequence (Q92993 2-461 isoform Q92993-2): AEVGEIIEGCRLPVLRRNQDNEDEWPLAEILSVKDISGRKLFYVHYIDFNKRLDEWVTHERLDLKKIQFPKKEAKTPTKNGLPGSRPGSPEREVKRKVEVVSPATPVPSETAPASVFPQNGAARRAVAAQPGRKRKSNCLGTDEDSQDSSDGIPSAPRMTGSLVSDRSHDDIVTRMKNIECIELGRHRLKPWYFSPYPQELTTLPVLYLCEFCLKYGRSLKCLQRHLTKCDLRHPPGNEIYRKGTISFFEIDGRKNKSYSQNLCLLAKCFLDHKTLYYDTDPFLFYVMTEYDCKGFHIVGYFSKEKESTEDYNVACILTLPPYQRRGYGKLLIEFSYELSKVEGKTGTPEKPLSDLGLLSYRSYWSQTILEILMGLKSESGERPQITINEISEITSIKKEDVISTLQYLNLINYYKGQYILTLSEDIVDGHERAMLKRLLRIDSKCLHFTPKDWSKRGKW
T3 sequence (Q92794 507-778 A567V limits assumed): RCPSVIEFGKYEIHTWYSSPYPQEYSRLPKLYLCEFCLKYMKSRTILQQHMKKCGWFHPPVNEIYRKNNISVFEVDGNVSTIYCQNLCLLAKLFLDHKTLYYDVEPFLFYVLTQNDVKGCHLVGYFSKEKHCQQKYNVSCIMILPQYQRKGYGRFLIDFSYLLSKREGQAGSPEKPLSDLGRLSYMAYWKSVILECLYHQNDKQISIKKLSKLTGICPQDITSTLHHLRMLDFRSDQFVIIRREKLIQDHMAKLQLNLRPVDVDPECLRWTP

Compound	IC50 [1] [µM]	IC50 [2] [µM]	IC50 [3] [µM]	IC50 [4] [µM]	IC50 [5] [µM]	IC50 [6] [µM]	IC50 [7] [µM]	IC50 [8] [µM]
O=C(NCC(CO)c1ccccc1)C1=Nc2ccccc2S(=O)(=O)N1 (centres unmarked) [Example 2, N-(3-Hydroxy-2-phenylpropyl)-2H-benzo[e][1,2,4]thiadiazine-3-carboxamide 1,1-dioxide]	60.7	> 125	> 125	5.14	28	38.1	–	–
O=C(NCC(CCO)c1ccccc1)C1=Nc2ccccc2S(=O)(=O)N1 (centres unmarked) [Example 3, N-(4-Hydroxy-2-phenylbutyl)-2H-benzo[e][1,2,4]thiadiazine-3-carboxamide 1,1-dioxide]	99.6	12.2	96.5	4.95	49.9	7.66	–	–
O=C(NCC(c1ccccc1)c1ncco1)C1=Nc2ccc(OC(F)(F)F)cc2S(=O)(=O)N1 (centres unmarked) [Example 5, N-(2-(Oxazol-2-yl)-2-phenylethyl)-7-(trifluoromethoxy)-2H-benzo[e][1,2,4]thiadiazine-3-carboxamide 1,1-dioxide]	0.493	–	1.17	0.069	–	0.667	27.7	2.04
O=C(NCCc1ccccc1-c1ncco1)C1=Nc2ccccc2S(=O)(=O)N1 [Example 7, N-(2-(Oxazol-2-yl)phenethyl)-2H-benzo[e][1,2,4]thiadiazine-3-carboxamide1,1-dioxide]	5.92	81.6	11.7	0.316	1.18	2.8	> 125	11.9
COc1ccc2c(c1)S(=O)(=O)NC(C(=O)NCC(c1ccccc1)c1ccccc1)=N2 [Example 19, N-(2,2-diphenylethyl)-7-methoxy-2H-benzo[e][1,2,4]thiadiazine-3-carboxamide 1,1-dioxide]	14.6	> 125	33.2	0.27	1	1.35	–	–
COC(=O)c1ccc2c(c1)S(=O)(=O)NC(C(=O)NCC(c1ccccc1)c1ccccc1)=N2 [Example 20]	13.8	62.8	29.5	0.49	1.25	6.05	–	–
O=C(NCC(c1ccccc1)c1ncco1)C1=Nc2ccc(C(=O)O)cc2S(=O)(=O)N1 (centres unmarked) [Example 24, 3-((2-(Oxazol-2-yl)-2-phenylethyl)carbamoyl)-2H-benzo[e][1,2,4]thiadiazine-7-carboxylic Acid 1,1-dioxide]	5.4	–	7.16	0.11	0.583	0.127	69.6	0.141
CN(C)C(=O)c1ccc2c(c1)S(=O)(=O)NC(C(=O)NCC(c1ccccc1)c1ncco1)=N2 (centres unmarked) [Example 33, N^7,N^7-Dimethyl-N^3-(2-(oxazol-2-yl)-2-phenylethyl)-2H-benzo[e][1,2,4]thiadiazine-3,7-dicarboxamide 1,1-dioxide]	3.78	> 125	6.95	0.047	0.551	0.126	89.6	6.78
CC(=O)c1ccc2c(c1)S(=O)(=O)NC(C(=O)NCC(c1ccccc1)c1ncco1)=N2 (centres unmarked) [Example 43, 7-acetyl-N-(2-(oxazol-2-yl)-2-phenylethyl)-2H-benzo[e][1,2,4]thiadiazine-3-carboxamide 1,1-dioxide]	0.266	71.6	2.39	0.014	0.086	0.243	–	1.99
O=C(NCC(c1ccccc1)c1ccccc1)C1=Nc2ccccc2S(=O)(=O)N1 [Example 68]	7.21	16.5	14.5	0.108	0.601	3.81	–	0.462
O=C(NCC(c1ccccc1)n1cccn1)C1=Nc2ccccc2S(=O)(=O)N1 (centres unmarked) [Example 75]	14.1	> 125	56.6	0.308	1.15	1.72	–	–
O=C(NCCc1ccccc1)C1=Nc2ccc(Br)cc2S(=O)(=O)N1 [Example 78]	4.54	> 125	16.7	0.203	3.53	3.74	–	4.56
O=C(NCC(O)c1ccccc1)C1=Nc2ccc(Br)cc2S(=O)(=O)N1 (centres unmarked) [Example 82]	–	–	7.82	–	–	9.19	> 125	–
O=C(NCC(O)c1ccccc1)C1=Nc2ccc(I)cc2S(=O)(=O)N1 (centres unmarked) [Example 87]	–	–	4.47	–	–	8.93	114	12
COC(CNC(=O)C1=Nc2ccc(I)cc2S(=O)(=O)N1)c1ccccc1 (centres unmarked) [Example 88]	–	–	1.19	–	–	–	47	0.659
O=C(NCC(c1ccccc1)c1ncco1)C1=Nc2cccnc2S(=O)(=O)N1 (centres unmarked) [Example 96]	13.3	> 125	94.7	0.149	1.11	1.17	–	3.17
O=C(NCCc1ccccc1OC(F)(F)F)C1=Nc2ccc(Br)cc2S(=O)(=O)N1 [Example 114]	–	–	0.954	–	–	0.861	> 125	0.529
O=C(NCCc1ccccc1O)C1=Nc2ccc(Br)cc2S(=O)(=O)N1 [Example 116]	–	–	4.44	–	–	2.26	56.7	–
O=C(NCC(c1ccccc1)c1ncco1)C1=Nc2ccc(-c3nccs3)cc2S(=O)(=O)N1 (centres unmarked) [Example 134]	0.648	15.7	2.17	0.024	0.72	0.149	–	3.32
CS(=O)(=O)Nc1ccc2c(c1)S(=O)(=O)NC(C(=O)NCC(c1ccccc1)c1ncco1)=N2 (centres unmarked) [Example 153, 7-(Methylsulfonamido)-N-(2-(oxazol-2-yl)-2-phenylethyl)-2H-benzo[e][1,2,4]thiadiazine-3-carboxamide 1,1-dioxide]	3.37	20.1	38.7	0.054	0.672	–	–	3.41
O=C(NCC(c1ccc(F)cc1)c1ncco1)C1=Nc2ccc(Cl)cc2S(=O)(=O)N1 (centres unmarked) [Example 165]	6.02	> 125	–	0.031	1.77	–	43.1	–
Cc1ccc(C(CNC(=O)C2=Nc3ccc(Cl)cc3S(=O)(=O)N2)c2ncco2)cc1 (centres unmarked) [Example 170]	13.3	> 125	–	0.143	1.63	–	3.75	–
O=C(NCC(c1ccccc1)c1ccccn1)C1=Nc2ccc(Br)cc2S(=O)(=O)N1 (centres unmarked) [Example 173]	0.651	30.4	–	0.011	0.161	–	39.1	0.051
O=C(NCC(c1ncco1)c1ccccc1I)C1=Nc2ccccc2S(=O)(=O)N1 (centres unmarked) [Example 174, N-(2-(2-iodophenyl)-2-(oxazol-2-yl)ethyl)-2H-benzo[e][1,2,4]thiadiazine-3-carboxamide 1,1-dioxide]	15.3	–	–	0.573	4.15	–	> 125	7.49
N#Cc1ccccc1C(CNC(=O)C1=Nc2ccccc2S(=O)(=O)N1)c1ncco1 (centres unmarked) [Example 218, N-(2-(2-Cyanophenyl)-2-(oxazol-2-yl)ethyl)-2H-benzo[e][1,2,4]thiadiazine-3-carboxamide 1,1-dioxide]	16.8	> 125	–	0.153	9.41	–	> 125	–
COC(=O)c1ccccc1C(CNC(=O)C1=Nc2ccccc2S(=O)(=O)N1)c1ncco1 (centres unmarked) [Example 219, Methyl 2-(2-(1,1-dioxido-2H-benzo[e][1,2,4]thiadiazine-3-carboxamido)-1-(oxazol-2-yl)ethyl)benzoate]	> 125	> 125	–	3.59	105	–	> 125	–
COC(=O)NC(CNC(=O)C1=Nc2ccccc2S(=O)(=O)N1)C1CCCCC1 (centres unmarked) [Example 243, methyl (1-cyclohexyl-2-(1,1-dioxido-2H-benzo[e][1,2,4]thiadiazine-3-carboxamido)ethyl)carbamate]	39.9	–	–	12.3	77.3	–	82.5	–

From patent US20210380548A1, “Fused [1,2,4]Thiadiazine Derivatives Which Act as KAT Inhibitors of the MYST Family” (CTxT Pty Limited, priority 2017, published 2021)
